Test results from patent publication US20100055691A1, “SCREENING METHOD FOR THERAPEUTIC AGENT FOR AMYOTROPHIC LATERAL SCLEROSIS” (HISAMITSU PHARMACEUTICAL CO.,IN., priority 2006, published 2010).

Columns and labels:
Type in all cases: cell-based
[1] = test system: Tollip; assay: cell fractionation and western blotting of the intracellular localization of Tollip; details: HEK293 cells transfected with Tollip-Myc-pcDNA3, 100 ng/mL TNF-α up to 48 h
Description: Firstly, the intracellular localization of alsin and Tollip was examined by cell fractionation and with western blotting. To be more specific, HEK293 cells were transfected with ALS2CR6-FLAG-pIRESpuro2 or Tollip-Myc-pcDNA3 and 24 h later, the cells were lysed and fractionated by a standard method. After that, western blotting (WB) was carried out. In the WB, lamin, which is localized in the cell nucleus only, and tubulin, which is localized in the cytoplasm only, were used as controls; mouse anti-lamin B (101-B7) NA12 (CALBIOCHEM) or mouse anti-tubulin (Ab-2) (clone DM1A) (LABVISION/NEOMARKERS) were used as primary antibodies, and goat anti-mouse SC-2005 (Santa Cruz) was used as the secondary antibody.
Next, with HEK293 cells transfected with Tollip-Myc-pcDNA3, we examined how the intracellular localization of Tollip changed by TNF-α treatment. Treatment with 100 ng/mL of TNF-α was given up to 48 h and changes in localization of Tollip were checked at different time points.

[2] = test system: Tollip and IRAK-1 complex; assay: immunoprecipitation of the interaction between Tollip and IRAK-1; details: HEK293 cells transfected with Tollip-Myc-pcDNA3, 100 ng/mL TNF-α for 1 h
Description: There has been a report that Tollip binds to IRAK-1 in IL-1R/TLR signaling. We examined whether this happened in TNF-α signaling also. The experiment was carried out by the immunoprecipitation method, which can verify binding of proteins. HEK293 cells were transfected with Tollip-Myc-pcDNA3. Then, after 24 h, some of the cells were treated for 1 h with 100 ng/mL of TNF-α while others were not treated. After that, the cells were lysed and immunoprecipitation […] was carried out. For the immunoprecipitation, Chrom PumPure mouse IgG (Jackson Immunoresearch) was used as the control, mouse anti-IRAK-1(F-4)SC-5288 (Santa Cruz) and mouse anti-Myc(9B11)#2276 (Santa Cruz) were used as primary antibodies, and goat anti-mouse SC-2005 (Santa Cruz) was used as the secondary antibody.

[3] = test system: NFκB protein in HEK293 cells; assay: western blotting of NFκB protein in cell nucleus and cytoplasm; details: 100 ng/mL TNF-α for 1, 2, 4, 8 or 24 h
Description: Furthermore, the expression level of the NFκB protein in the cell nucleus and the cytoplasm of HEK293 cells treated with 100 ng/mL of TNF-α for 1, 2, 4, 8, or 24 h was examined using western blotting (WB). For this WB, rabbit anti-NFκB p65(C-20) SC-372 (Santa Cruz) was used as the primary antibody and goat anti-rabbit SC-2004 (Santa Cruz) as the secondary antibody.

[4] = test system: NFκB activity in HEK293 cells; assay: luciferase assay of induction of NFκB activity by TNF-α
Description: Firstly, for establishing the experiment system, we screened various treatment times and doses of TNF-α to determine the optimum conditions for induction of NFκB activity by TNF-α. The luciferase assay was used for the screening. To be more specific, firstly, the NFκB gene was introduced upstream of LUC into pELAM1-Luc, which is a luciferase (LUC) reporter vector, and a vector for expressing NFκB/LUC fusion protein was prepared. Next, HEK293 cells were transfected with this expression vector. 24 h after the transfection, the cells were treated with 10 ng/mL of TNF-α for 1, 2, 4, 8, or 24 h. After that, the luciferase assay was carried out by a standard method, and the level of transcription of the NFκB, which was the target gene, was examined. FIG. 9 (A) confirms that highest NFκB activity was induced 1 h after the treatment with TNF-α.
The level of transcription of NFκB was measured using different concentrations of TNF-α: 10, 100, and 1000 ng/mL, keeping the treatment time constant at 1 h. FIG. 9 (B) confirms that the highest NFκB activity was induced with 100 ng/mL.

## TNF-α
[1]
  expression of Tollip: decreased the expression of Tollip
  intracellular localization of Tollip: made Tollip to migrate to the cell nucleus
[2]
  binding of Tollip and IRAK-1: suppressed
[3]
  time of highest level of NFκB protein in the cell nucleus: 1 h
[4]; HEK293 cells, 10 ng/mL TNF-α for 1, 2, 4, 8 or 24 h
  treatment time at which highest NFκB activity was induced: 1 h
[4]; HEK293 cells, 10, 100 and 1000 ng/mL, treatment time 1 h
  concentration at which highest NFκB activity was induced: 100 ng/mL
